From patent US11149036B2, “3-(1H-pyrazol-4-yl)pyridine allosteric modulators of the M4 muscarinic acetylcholine receptor” (Merck Sharp & Dohme Corp., priority 2017, dated 2021)

Biological target: T1, human M4 muscarinic acetylcholine receptor (Homo sapiens, UniProt P08173)
T1 construct: expressed in transfected cells; host or cells: CHO-K1
T1 sequence (P08173 1-479): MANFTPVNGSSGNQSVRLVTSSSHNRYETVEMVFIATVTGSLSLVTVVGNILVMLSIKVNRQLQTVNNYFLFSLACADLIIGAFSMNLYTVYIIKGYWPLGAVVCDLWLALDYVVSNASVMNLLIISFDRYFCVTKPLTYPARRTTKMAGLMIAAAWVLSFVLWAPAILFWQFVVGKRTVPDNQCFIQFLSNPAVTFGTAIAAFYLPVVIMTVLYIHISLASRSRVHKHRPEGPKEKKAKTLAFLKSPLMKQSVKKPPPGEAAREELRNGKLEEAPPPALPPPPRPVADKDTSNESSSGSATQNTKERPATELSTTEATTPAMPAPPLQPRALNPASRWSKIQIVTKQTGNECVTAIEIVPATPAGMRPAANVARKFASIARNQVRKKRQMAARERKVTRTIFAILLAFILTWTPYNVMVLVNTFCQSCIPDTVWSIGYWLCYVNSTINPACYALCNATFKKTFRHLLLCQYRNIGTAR
Assay: human FLIPR-based M4 PAM assay (CHO-K1 cells with human M4 receptor and Gaqi5, calcium dye fluorescence)
Format: cell-based
Conditions: inflection point (IP) of dose response curve, acetylcholine added at 20% of maximum response, read-out: M4 FLIPPR Hu IP
Method: (§1) In a typical experiment the M4 muscarinic acetylcholine receptor modulating activity of the compounds of the present invention was determined in accordance with the following experimental method. CHO-K1 cells stably transfected with human M4 receptor and chimeric G-protein Gaqi5 (Coward P, et al., Analytical Biochemistry, 270:242-248 (1999)) are thawed from liquid N2 storage, resuspended in growth medium, plated in black, clear bottom 384 well plates, and incubated 16-20 hours at 37° C., 5% CO2. On the day of assay, growth medium is removed, the cells are washed 2 times with wash buffer, and cells are incubated in dye loading buffer at 37° C., 5% CO2 for ˜1 hour. Following dye loading the cell plates are placed in a FLIPR Tetra instrument and while monitoring dye fluorescence (excitation 470-495 […]), 10 uL of test substance at increasing concentrations is added, and fluorescence values are recorded for 4 min. Next, 10 uL of acetylcholine is added (final concentration calculated so as to achieve 20% of the maximum acetycholine response), and the fluorescence reading is continued for 3.5 min. In some cases, a third addition of acetylcholine (final concentration calculated to achieve 70% of the maximal acetylcholine response) is performed. The resulting dose response curves are fit to a 4 parameter logistic equation and the final result is determined as the inflection point (IP) of the curve
as §1, with “CHO-K1” for “In a typical experiment the M4 muscarinic acetylcholine receptor modulating activity of the compounds of the present invention was determined in accordance with the following experimental method. CHO-K1”, “Gaqi5” for “Gaqi5 (Coward P, et al., Analytical Biochemistry, 270:242-248 (1999))”, “performed.” for “performed. The resulting dose response curves are fit to a 4 parameter logistic equation and the final result is determined as the inflection point (IP) of the curve”

| SMILES | EC50 [nM] |
| --- | --- |
| COc1cc2ccc(-c3nc(C)ccc3-c3cnn(CC4CC5C(C4)C5(F)F)c3)cc2nn1 (centres unmarked) [Example 37, 7-(3-(1-((6,6-difluorobicyclo[3.1.0]hexan-3-yl)methyl)-1H-pyrazol-4-yl)-6-methylpyridin-2-yl)-3-methoxycinnoline] | 51 |
| COc1cc2ccc(-c3nc(C)ccc3-c3cnn(CC4CCC5(CC5)C4)c3)cc2nn1 (centres unmarked) [Example 145, 3-methoxy-7-(6-methyl-3-(1-(spiro[2.4]heptan-5-ylmethyl)-1H-pyrazol-4-yl)pyridin-2-yl)cinnoline] | 92 |
| Cn1cc2ccc(-c3nc(C#N)ccc3-c3cnn(CC4(F)CCCC4)c3)cc2n1 [Example 48, 5-(1-((1-fluorocyclopentyl)methyl)-1H-pyrazol-4-yl)-6-(2-methyl-2H-indazol-6-yl)picolinonitrile] | 41 |
| Cc1cc(-c2cnn(CC3(F)CCCC3)c2)c(-c2ccn3cnnc3c2)nc1Cl [Example 118, 7-(6-chloro-3-(1-((1-fluorocyclopentyl)methyl)-1H-pyrazol-4-yl)-5-methylpyridin-2-yl)-[1,2,4]triazolo[4,3-a]pyridine] | 48 |
| CC1(Cn2cc(-c3cc(F)c(C#N)nc3-c3ccn4cc(CF)nc4c3)cn2)CCCC1 [compound 136, 3-fluoro-6-(2-(fluoro-methyl)imidazo[1,2-a]pyridin-7-yl)-5-(1-((1-methylcyclopentyl)meth-yl)-1H-pyrazol-4-yl)picolinonitrile] | 19 |
| N#Cc1nc(-c2ccn3cc(C(F)(F)F)nc3c2)c(-c2cnn(CC3(F)CCCC3)c2)cc1F [Example 91, 3-fluoro-5-(1-((1-fluorocyclopentyl)methyl)-1H-pyrazol-4-yl)-6-(2-(trifluoromethyl)imidazo [1,2-a]pyridin-7-yl)picolinonitrile] | 33 |
| N#Cc1ccc(-c2cnn(CC3(F)CCCC3)c2)c(-c2ccn3cc(C(F)F)nc3c2)n1 [Example 58, 6-(2-(difluoromethyl)imidazo [1,2-a]pyridin-7-yl)-5-(1-((1-fluorocyclopentyl)methyl)-1H-pyrazol-4-yl)picolinonitrile] | 15 |
| Cn1cnc2cc(-c3nc(C#N)c(F)cc3-c3cnn(CC4(C)CCCC4)c3)ccc21 [Example 86, 3-fluoro-6-(1-methyl-1H-benzo[d]imidazol-5-yl)-5-(1-((1-methylcyclopentyl)methyl)-1H-pyrazol-4-yl)picolinonitrile] | 18 |
| Cc1nc2cc(-c3nc(C#N)ccc3-c3cnn(CC4(F)CCCC4)c3)ccc2n1C [Example 59, 6-(1,2-dimethyl-1H-benzo[d]imidazol-5-yl)-5-(1-((1-fluorocyclopentyl)methyl)-1H-pyrazol-4-yl)picolinonitrile] | 43 |
| CC1(Cn2ncc(-c3ccc(C#N)nc3-c3ccn4ccnc4c3)c2C#N)CCCC1 [Example 144, 5-(5-cyano-1-((1-methylcyclopentyl)methyl)-1H-pyrazol-4-yl)-6-(imidazo[1,2-a]pyridin-7-yl)picolinonitrile] | 54 |
| N#Cc1ccc(-c2cnn(CC3(F)CCCC3)c2)c(-c2cnc3c(c2)C(=O)N(CC2CC2)C3)n1 [Example 55, 6-(6-(cyclopropylmethyl)-5-oxo-6,7-dihydro-5H-pyrrolo[3,4-b]pyridin-3-yl)-5-(1-((1-fluorocyclopentyl)methyl)-1H-pyrazol-4-yl)picolinonitrile] | 35 |
| COc1cc2ccc(-c3nc(C)ccc3-c3cnn(CC45CCC(CC4)C5)c3)cc2nn1 [Example 25, 7-(3-(1-(bicyclo[2.2.1]heptan-1-ylmethyl)-1H-pyrazol-4-yl)-6-methylpyridin-2-yl)-3-methoxycinnoline] | 10 |
| Cc1ccc(-c2cnn(CC3(C)CCCC3)c2)c(-c2ccc3cn(C)nc3c2)n1 [Example 34, 2-methyl-6-(6-methyl-3-(1-((1-methylcyclopentyl)methyl)-1H-pyrazol-4-yl)pyridin-2-yl)-2H-indazole] | 57 |
| Cc1cn2ccc(-c3nc(C#N)ccc3-c3cnn(CC4(F)CCCC4)c3)cc2n1 [Example 3, 5-(1-((1-fluorocyclopentyl)methyl)-1H-pyrazol-4-yl)-6-(2-methylimidazo[1,2-a]pyridin-7-yl)picolinonitrile] | 12 |
| COCc1cn2ccc(-c3nc(C#N)ccc3-c3cnn(CC4(C)CCCC4)c3)cc2n1 [compound 156, 6-(2-(methoxymeth-yl)imidazo[1,2-a]pyridin-7-yl)-5-(1-((1-methylcyclopentyl)meth-yl)-1H-pyrazol-4-yl)picolinonitrile] | 29 |
| N#Cc1ccc(-c2cnn(CC3(F)CCCC3)c2)c(-c2ccn3ccnc3c2)n1 [Example 50, 5-(1-((1-fluorocyclopentyl)methyl)-1H-pyrazol-4-yl)-6-(imidazo[1,2-a]pyridin-7-yl)picolinonitrile] | 27 |

Second part, the molecule after the results:

| EC50 [nM] | SMILES |
| --- | --- |
| 29 | Cc1ccc(-c2cnn(C[C@@H]3CC[C@H](F)C3)c2)c(-c2ccc3cccnc3c2)n1 (racemic) [Example 31, 7-(3-(1-(((1R,3S and 1S,3R)-3-fluorocyclopentyl)methyl)-1H-pyrazol-4-yl)-6-methylpyridin-2-yl)quinoline] |
| 63 | COc1cc2ccc(-c3nc(C(F)F)ccc3-c3cnn(C[C@H]4CC[C@H](F)C4)c3)cc2nn1 [Example 123, 7-(6-(difluoromethyl)-3-(1-(((1S,3S)-3-fluorocyclopentyl)methyl)-1H-pyrazol-4-yl)pyridin-2-yl)-3-methoxy-cinnoline] |
| 26 | FC(F)Oc1ccc(-c2cnn(CC3CCCC3)c2)c(-c2ccc3cccnc3c2)n1 [Example 166, 7-(3-(1-(cyclopentylmethyl)-1H-pyrazol-4-yl)-6-(difluoromethoxy)pyridin-2-yl)quinoline] |
| 50 | Cn1cnc2cc(-c3nc(C(F)F)ccc3-c3cnn(C[C@@H]4CC[C@@H](F)C4)c3)ccc21 [Example 121, 5-(6-(difluoromethyl)-3-(1-(((1R,3R)-3-fluorocyclopentyl)methyl)-1H-pyrazol-4-yl)pyridin-2-yl)-1-methyl-1H-benzo[d] imidazole] |
| 26 | Cc1ccc(-c2cnn(C[C@H]3CC[C@@H](F)C3)c2)c(-c2ccc3cccnc3c2)n1 (single isomer, unassigned) [Example 134, 7-(3-(1-(((1S,3R) or (1R,3S)-3-fluorocyclopentyl)methyl)-1H-pyrazol-4-yl)-6-methylpyridin-2-yl)quinoline] |
| 32 | Cc1ccc(-c2cnn(C[C@H]3CC[C@H](F)C3)c2)c(-c2ccc3cccnc3c2)n1 (racemic) [Example 30, 7-(3-(1-(((1S,3S and 1R,3R)-3-fluorocyclopentyl)methyl)-1H-pyrazol-4-yl)-6-methylpyridin-2-yl)quinoline] |
| 22 | Cc1ccc(-c2cnn(CC3CCC(F)(F)C3)c2)c(-c2ccc3cccnc3c2)n1 (single isomer, unassigned) [Example 129, (S or R)-7-(3-(1-((3,3-difluorocyclopentyl)methyl)-1H-pyrazol-4-yl)-6-methylpyridin-2-yl)quinoline] |
| 54 | Cc1ccc(-c2cnn(CC3CCCC3)c2)c(-c2ccc(CCCO)cc2)n1 [Example 8, 3-(4-(3-(1-(cyclopentylmethyl)-1H-pyrazol-4-yl)-6-methylpyridin-2-yl)phenyl)propan-1-ol] |
| 31 | Cc1ccc(-c2cnn(C[C@H]3CC[C@H](F)C3)c2)c(-c2ccc3cccnc3c2)n1 (single isomer, unassigned) [Example 131, 7-(3-(1-(((1S,3S) or (1R,3R)-3-fluorocyclopentyl)methyl)-1H-pyrazol-4-yl)-6-methylpyridin-2-yl)quinoline] |
| 7 | Clc1ccc(-c2cnn(CC3CCCC3)c2)c(-c2ccc3cccnc3c2)n1 [Example 165, 7-(6-chloro-3-(1-(cyclopentylmethyl)-1H-pyrazol-4-yl)pyridin-2-yl)quinoline] |
